Assay results reported in patent publication US7582651B2, “Pyrrolopyridine derivative and use thereof” (Takeda Pharmaceutical Company Limited, priority 2002, dated 2009).

What was measured:
[1] = test system: SD male rats; test: Measurement of bladder volume (saline infusion under urethane anesthesia); assay type: in vivo, rat; settings: sc, 12 hours after administration
Description: Measurement of Mouse Bladder Volume
Six or seven of 7 weeks old SD male rats were used in a group in this test. At 12 hours after the subcutaneous administration of the drug, the abdomen of rat was cut open under urethane anesthesia (1.2 g/kg, ip) to expose the bladder. Physiological saline solution was infused into the bladder at the rate of 0.1 ml/minutes to check excretion reflection. All of the urine was drained off, and the physiological saline solution was infused again, and then, the bladder volume of mouse was calculated by measuring the time to urination.

[2] = test system: ICR male mice; test: Tail-flick test (55° C. water bath); assay type: in vivo, mouse; settings: po
Description: Eight of 5 weeks old ICR male mice were used in a group in this test. The tail of the mouse was dipped by about 2 cm from the end into water in a water bath warmed to 55° C., and the latency to lift the tail up was measured. The latency was previously measured before the administration of the drug, and the mouse having the latency of 2 seconds or less was selected and used in the test. The drug was administered orally, and the latency was measured after 3, 6 and 24 hours. Cut-off time was set to 5 seconds. The drug was suspended in 0.5% methylcellulose, and the dose was 20 ml/kg BW.

[3] = test system: vanilloid receptor-1 (VR1) expressed in CHO-K1 cells (RVR1/CHO and HVR1/CHO strains); test: Evaluation of compounds based on cell death (survival rate of VR1-expressing CHO strains); parameters: species or system rat, human; settings: 1 μM test compound, 3 hours reaction, Alama Blue, cultured 20 hours; strain (RVR1/CHO or HVR1/CHO) not stated
Description: CHO-K1 cells (ATCC No.: CCL-61) were grown in a 150 cm^2 of a cell culture flask (Corning Coaster) using a Ham's F12 medium (GIBCO BRL) containing 10% fetal bovine serum (GIBCO BRL) and were collected from the flask by using 0.5 g/L trypsin-0.2 g/L EDTA (GIBCO BRL). The cells were washed with PBS (GIBCO BRL), centrifuged (1000 rpm, 5 minutes) and suspended in PBS. Then, the DNA was introduced into the cells using Gene Pulser (Bio-Rad Laboratories Inc.) under the following conditions. Namely, 1×10^7 cells and 15 μg of plasmid pRVR1 for expression of rat VR1 were added into a cuvette having a 0.4 cm of gap, and electroporation was carried out at an electric voltage of 0.25 kV and a capacitance of 960 μF. Subsequently, the cells were transferred into the Ham's F12 medium containing 10% fetal bovine serum, and incubated for 24 hours. The cells were then collected, centrifuged and suspended in Ham's F12 medium containing 10% fetal bovine serum and Geneticin (GIBCO BRL) at a concentration of 500 μg/ml. […]
Subsequently, the resulting Geneticin-resistant strains were cultured in the 96-well plates (Corning Coaster). […] Subsequently, the radioactivity was measured with TopCount (Packard Industry Company, Inc.) to select RVR1/CHO strains of which calcium concentration in the cells is increased when capsaicin is added thereto. […]

[4] = test system: ICR male mice; test: Mouse eye dropping test (stimulating and desensitizing activity, capsaicin challenge); assay type: in vivo; settings: 0.01 ml dropped to the eye; capsaicin (0.3 μg) 1 hour after initial treatment; desensitizing activity
Description: Eight of 4 to 5 weeks old ICR male mice (Japan SLC Inc.) were used in a group in this test. 0.01 ml of the drug was added dropwise to the eye, and the time when the mouse continued to close the eye was measured. The stimulation of the drug was evaluated as positive when the time is more than 10 seconds, and as negative when the time is 10 seconds or less. At 1 hour after the initial treatment, a solution of capsaicin (0.3 μg) was added dropwise to the eye to evaluate whether the stimulation is or not, and examined the desensitizing activity of the compound. The stimulating and desensitizing activity of the drug were calculated as a value of ED50. The drug was dissolved in a mixture of 10% ethanol, 20% Tween 80 and 70% physiological saline solution.

Cc1cc(C)c2c(C#N)c(/C=C/C(=O)NC3CCOC(C)(C)C3)n(C3CCc4ccccc43)c2n1 (stereo not drawn) [Example 51, (2E)-3-[3-cyano-1-(indan-1-yl)-4,6-dimethyl-1H-pyrrolo[2,3-b]pyridin-2-yl]-N-(2,2-dimethyltetrahydro-2H-pyran-4-yl)acrylamide]
Bladder capacity ([1]; 3 mg/kg): 1.76 ± 0.37 mL
Bladder capacity ([1]; 10 mg/kg): 1.57 ± 0.23 mL
Latency ([2]; 10 mg/kg, 3 h after administration): 0.85 ± 0.10 s
Latency ([2]; 10 mg/kg, 6 h after administration): 0.64 ± 0.04 s
Latency ([2]; 10 mg/kg, 24 h after administration): 0.78 ± 0.04 s
Latency ([2]; 10 mg/kg, Pre (before administration)): 0.55 ± 0.02 s
Latency ([2]; 30 mg/kg, 3 h after administration): 2.31 ± 1.13 s
Latency ([2]; 30 mg/kg, 6 h after administration): 2.04 ± 1.15 s
Latency ([2]; 30 mg/kg, 24 h after administration): 3.36 ± 1.02 s
Latency ([2]; 30 mg/kg, Pre (before administration)): 0.70 ± 0.07 s

Cc1cc(C)c2c(C#N)c(/C=C/C(=O)N[C@@H]3CCOC(C)(C)C3)n([C@H]3CCCc4ccccc43)c2n1 [Example 74, (2E)-3-{3-cyano-4,6-dimethyl-1-[(1S)-1,2,3,4-tetrahydronaphthalen-1-yl]-1H-pyrrolo[2,3-b]pyridin-2-yl}-N-[(4R)-2,2-dimethyltetrahydro-2H-pyran-4-yl]prop-2-enamide]
survival rate of the cells [3]: 2%
ED50 [4]: 0.55 µg
